The text below walks through data of patent US10000471B2, “Pyrazole P38 map kinase inhibitors” (Respivert Limited, priority 2010, dated 2018).

The test system of data set [1] is IL-8 release in d-U937 cells. The data set is described as follows: LPS-induced IL-8 release in d-U937 cells. The format is cell-based, human. The settings on record: Homo sapiens, dU937. A digest of the protocol: (§1)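 Sandwich ELISA of TNFα and IL-8 in supernatants after 4 hr 0.1 μg/mL LPS (E. coli O111:B4) challenge of U937 cells differentiated with PMA 100 ng/ml for 48–72 hr, compound added 2 hr beforehand. IL-8: IC50 from inhibition versus vehicle; TNFα: REC50 from inhibition as percentage of 10 μg/mL BIRB796 effect.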

The target of data set [2] is T1, p38 MAPKα isoform (MAPK14) (Homo sapiens, UniProt Q16539).
T1 construct: purchased Invitrogen
The data set is described as follows: Enzyme inhibition assay (FRET, Z-LYTE), p38 MAPKα via MAPKAP-K2 activation. The class given is biochemical. Particulars: read-out: Enzyme Inhibition IC50 p38α. A digest of the protocol:
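Z-LYTE FRET format, in which protease cleaves only non-phosphorylated peptide, read after 1 h development. Compound was mixed with p38 MAPKα for 2 h at RT, and inhibition was gauged from MAPKAP-K2 activation/phosphorylation rather than directly. Percent inhibition against an uninhibited control was fitted to give IC50.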

For data set [3], the system named is TNFα release in THP-1 cells. The data set is described as follows: LPS-induced TNFα release in THP-1 cells. The format is cell-based, human. The settings on record: Homo sapiens. The method in brief:
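IC50 derived from concentration-response of TNFα inhibition relative to vehicle, with TNFα quantified by sandwich ELISA in supernatants. THP-1 cells were challenged 4 hr with LPS (E. coli, 3 μg/mL).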

Data set [4] concerns the target T2, p38 MAPKγ (MAPK12) (Homo sapiens, UniProt P53778).
T2 construct: purchased Invitrogen
T2 sequence (P53778 1-367): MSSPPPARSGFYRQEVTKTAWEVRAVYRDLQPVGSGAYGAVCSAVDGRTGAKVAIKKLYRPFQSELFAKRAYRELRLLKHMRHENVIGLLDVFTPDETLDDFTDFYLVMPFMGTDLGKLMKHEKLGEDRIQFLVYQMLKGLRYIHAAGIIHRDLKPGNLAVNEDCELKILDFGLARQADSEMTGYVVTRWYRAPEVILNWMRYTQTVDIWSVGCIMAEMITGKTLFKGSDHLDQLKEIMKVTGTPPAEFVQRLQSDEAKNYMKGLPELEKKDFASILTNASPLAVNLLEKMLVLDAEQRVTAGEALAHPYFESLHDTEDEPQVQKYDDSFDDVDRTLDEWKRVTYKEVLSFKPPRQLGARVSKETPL
Put plainly: Enzyme inhibition assay (FRET, Z-LYTE), p38 MAPKγ. The class given is biochemical. Particulars: read-out: Enzyme Inhibition IC50 p38γ. A digest of the protocol:
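Z-LYTE FRET readout: after 1 h kinase reaction (ATP 100 μM, peptide 2 μM) following 2 h RT enzyme–compound preincubation in HEPES, protease cleaves only unphosphorylated peptide. Percent inhibition from donor/acceptor ratio relative to control; IC50 fitted from the curve.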

Data set [5] deals with ICAM-1 induction in BEAS2B cells. Put plainly: Poly I:C-induced ICAM-1 induction in BEAS2B cells. The class given is cell-based, human. Particulars: Homo sapiens, BEAS-2B, read-out: PolyIC/ICAM1 IC50 BEAS2B. A digest of the protocol:
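IC50 reflects inhibition of cell-surface ICAM-1 relative to vehicle, read by ELISA (OD450 against 655 nm) and divided by crystal violet OD595 for cell number. Readings were taken 18 hr after transfection of 1 μg/mL poly I:C into BEAS2B cells. Compound was added 2 hr before stimulation.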

Data set [6] concerns TNFα release in d-U937 cells. The data set is described as follows: LPS-induced TNFα release in d-U937 cells. The class given is cell-based, human. Particulars: Homo sapiens, dU937, relative to 10 μg/mL BIRB796, read-out: LPS/TNFα REC50 d-U937. The method in brief:
as §1

The test system of data set [7] is Differentiated U937 cells. Put plainly: Cell viability MTT assay. The class given is cell-based, human. The settings on record: negative = apparent increase in viability; for MTT Assay (Viability) 4 h d-U937, percentage loss of cell viability: 4 hr in 5% FCS; for MTT Assay (Viability) 24 h d-U937, percentage loss of cell viability: 24 h in 10% FCS. The method in brief: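 Differentiated U937 cells pre-incubated with compound either 4 hr in 5% FCS or 24 h in 10% FCS, then 1 hr MTT. Formazan dissolved in DMSO, absorbance at 550 nm. Percentage viability loss relative to 0.5% DMSO vehicle; apparent increases appear as negative percentages.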
On the technique in general: Tetrazolium assays rely on reduction of a dye to a coloured formazan, in cell work by metabolically active cells.

pEC50, pIC50: −log10 of the molar value.

T1 sequence (Q16539 whole entry, canonical isoform): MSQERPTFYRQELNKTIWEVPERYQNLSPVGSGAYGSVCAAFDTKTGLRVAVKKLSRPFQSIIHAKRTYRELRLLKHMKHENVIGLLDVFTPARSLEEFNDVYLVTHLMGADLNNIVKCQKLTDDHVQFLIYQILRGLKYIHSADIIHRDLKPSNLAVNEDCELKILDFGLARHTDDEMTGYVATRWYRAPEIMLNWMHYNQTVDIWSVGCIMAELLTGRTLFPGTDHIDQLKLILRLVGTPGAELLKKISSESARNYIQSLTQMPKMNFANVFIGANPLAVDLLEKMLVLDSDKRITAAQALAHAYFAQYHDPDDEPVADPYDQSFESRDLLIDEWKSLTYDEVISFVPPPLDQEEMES

For `CC(C)(C)c1cc(NC(=O)Nc2ccc(Oc3ccnc(NC(=O)CN4CCOCC4)c3)c(Cl)c2Cl)n(-c2ccc(CO)cc2)n1` [Example 48, N-(4-(4-(3-(3-tert-butyl-1-(4-hydroxymethylphenyl)-1H-pyrazol-5-yl)ureido)-2,3-dichlorophenoxy)pyridin-2-yl)-2-morpholino-acetamide], the pIC50 in data set [1] was 8.29; in data set [2] it was 8.20; in data set [3], 9.40; in data set [4], 7.65; in data set [5], 8.66. Further, the pEC50 in data set [6] is 8.96. Also, in data set [7], the “MTT Assay (Viability) 4 h d-U937, percentage loss of cell viability” value came out at 12.5%. The “MTT Assay (Viability) 24 h d-U937, percentage loss of cell viability” value in data set [7] is on record as 84.1%.

As for `COCC(=O)Nc1cc(Oc2ccc(NC(=O)Nc3cc(C(C)(C)C)nn3-c3ccc(CO)cc3)c(Cl)c2Cl)ccn1` [Example 49, N-(4-(4-(3-(3-tert-butyl-1-(4-hydroxymethylphenyl)-1H-pyrazol-5-yl)ureido)-2,3-dichlorophenoxy)pyridin-2-yl)-2-methoxyacetamide], the pIC50 in data set [1] is 8.66; in data set [2] it was 7.78; in data set [3], 8.92; in data set [4], 7.44; in data set [5], 8.82. In data set [6], the pEC50 is 9.15. Also, the “MTT Assay (Viability) 4 h d-U937, percentage loss of cell viability” value in data set [7] is recorded as −4.8%. In addition, the “MTT Assay (Viability) 24 h d-U937, percentage loss of cell viability” value in data set [7] was found to be 92.2%.

Regarding `CNC(=O)Nc1cc(Oc2ccc(NC(=O)Nc3cc(C(C)(C)C)nn3-c3ccc(C)cc3)c(Cl)c2Cl)ccn1` [Example 50, 1-(3-tert-butyl-1-p-tolyl-1H-pyrazol-5-yl)-3-(2,3-dichloro-4-(2-(3-methylureido)pyridin-4-yloxy)phenyl)urea], the pIC50 in data set [1] was 9.22; in data set [2], 7.39; in data set [3] it was 8.89; in data set [4] it was 7.23; in data set [5], 8.96. Also, in data set [6], the pEC50 is 9.70. Also, the “MTT Assay (Viability) 4 h d-U937, percentage loss of cell viability” value in data set [7] is given as −5.4%. Further, the “MTT Assay (Viability) 24 h d-U937, percentage loss of cell viability” value in data set [7] was determined as 35.9%.

On to `CNC(=O)Nc1cc(Oc2ccc(NC(=O)Nc3cc(C(C)(C)C)nn3-c3ccc(O)cc3)c(Cl)c2Cl)ccn1` [Example 51, 1-(3-tert-butyl-1-(4-hydroxyphenyl)-1H-pyrazol-5-yl)-3-(2,3-dichloro-4-(2-(3-methylureido)pyridin-4-yloxy)phenyl)urea], for which the pIC50 in data set [1] was 8.17; in data set [2] it was 7.47; in data set [3], 9.15; in data set [4] it was 6.76; in data set [5], 9.15. Further, the pEC50 in data set [6] was 8.92. Also, the “MTT Assay (Viability) 4 h d-U937, percentage loss of cell viability” value in data set [7] is on record as −17.3%. For the same compound, the “MTT Assay (Viability) 24 h d-U937, percentage loss of cell viability” value in data set [7] is recorded as 57.3%.

In the case of `CNC(=O)Nc1cc(Oc2ccc(NC(=O)Nc3cc(C(C)(C)C)nn3-c3ccc(CO)cc3)c(Cl)c2Cl)ccn1` [Example 52, 1-(3-tert-butyl-1-(4-hydroxymethylphenyl)-1H-pyrazol-5-yl)-3-(2,3-dichloro-4-(2-(3-methylureido)pyridin-4-yloxy)phenyl)urea], the pIC50 in data set [1] is 8.72; in data set [2], 7.77; in data set [3] it was 9.00; in data set [4], 7.49; in data set [5], 8.62. In addition, the pEC50 in data set [6] is 9.30. For the same compound, in data set [7], the “MTT Assay (Viability) 4 h d-U937, percentage loss of cell viability” value is reported as −43.8%. In data set [7], the “MTT Assay (Viability) 24 h d-U937, percentage loss of cell viability” value is listed as 8.1%.

On to `CNC(=O)Nc1cc(Oc2ccc(NC(=O)Nc3cc(C(C)(C)C)nn3-c3ccc(CO)c(OC)c3)c(Cl)c2Cl)ccn1` [Example 53, 1-(3-tert-butyl-1-(4-hydroxymethyl-3-methoxy-phenyl)-1H-pyrazol-5-yl)-3-(2,3-dichloro-4-(2-(3-methylureido)pyridin-4-yloxy)phenyl)urea], for which the pIC50 in data set [1] was 8.11; in data set [2], 7.33; in data set [3], 8.74; in data set [4], 7.45; in data set [5], 8.66. Besides, the pEC50 in data set [6] is 8.89. Besides, the “MTT Assay (Viability) 4 h d-U937, percentage loss of cell viability” value in data set [7] is −1.1%. Further, the “MTT Assay (Viability) 24 h d-U937, percentage loss of cell viability” value in data set [7] was 87.8%.

`CNC(=O)Nc1cc(Oc2ccc(NC(=O)Nc3cc(C(C)(C)C)nn3-c3ccc(CO)c(Cl)c3)c(Cl)c2Cl)ccn1` [Example 54, 1-(3-tert-butyl-1-(3-chloro-4-hydroxymethylphenyl)-1H-pyrazol-5-yl)-3-(2,3-dichloro-4-(2-(3-methylureido)pyridin-4-yloxy)phenyl)urea]: the pIC50 in data set [1] is 8.49; in data set [2], 7.06; in data set [3], 8.66; in data set [4] it was 7.28; in data set [5] it was 8.60. The pEC50 in data set [6] is 9.52. Further, the “MTT Assay (Viability) 4 h d-U937, percentage loss of cell viability” value in data set [7] is given as −34.9%. Besides, the “MTT Assay (Viability) 24 h d-U937, percentage loss of cell viability” value in data set [7] is 71.2%.

In the case of `CC(C)(C)c1cc(NC(=O)Nc2ccc(Oc3ccnc(NC(=O)NC4CC4)c3)c(Cl)c2Cl)n(-c2ccc(CO)cc2)n1` [Example 55, 1-(4-(4-(3-(3-tert-butyl-1-(4-hydroxymethylphenyl)-1H-pyrazol-5-yl)ureido)-2,3-dichlorophenoxy)pyridin-2-yl)-3-cyclopropylurea], the pIC50 in data set [1] was 8.51; in data set [2], 7.30; in data set [3], 8.32; in data set [4], 6.70; in data set [5], 8.77. The pEC50 in data set [6] was 9.00. For the same compound, in data set [7], the “MTT Assay (Viability) 4 h d-U937, percentage loss of cell viability” value is given as −15.0%. Besides, in data set [7], the “MTT Assay (Viability) 24 h d-U937, percentage loss of cell viability” value amounted to 49.2%.

Regarding `CNC(=O)Nc1cc(Oc2ccc(NC(=O)Nc3cc(C(C)(C)C)nn3-c3ccc(C)cc3)c3ncccc23)ccn1` [Example 56, 1-(3-tert-butyl-1-p-tolyl-1H-pyrazol-5-yl)-3-(5-(2-(3-methylureido)pyridin-4-yloxy)quinolin-8-yl)urea], the pIC50 is 8.34 in data set [1]; 7.28 in data set [2]; 8.07 in data set [3]; 6.71 in data set [4]; 7.91 in data set [5]. Also, the pEC50 in data set [6] is 9.05. Besides, in data set [7], the “MTT Assay (Viability) 4 h d-U937, percentage loss of cell viability” value is −25.5%. The “MTT Assay (Viability) 24 h d-U937, percentage loss of cell viability” value in data set [7] is −28.0%.

As to `CNC(=O)Nc1cc(Oc2ccc(NC(=O)Nc3cc(C(C)(C)C)nn3-c3ccc(OC)cc3)c3ncccc23)ccn1` [Example 57, 1-(3-tert-butyl-1-(4-methoxyphenyl)-1H-pyrazol-5-yl)-3-(5-(2-(3-methylureido)pyridin-4-yloxy)quinolin-8-yl)urea], the pIC50 in data set [1] is 8.52; in data set [2] it was 7.33; in data set [3], 7.83; in data set [4] it was 6.78; in data set [5] it was 6.85. The pEC50 in data set [6] is 8.64. In addition, in data set [7], the “MTT Assay (Viability) 4 h d-U937, percentage loss of cell viability” value was −23.6%. The “MTT Assay (Viability) 24 h d-U937, percentage loss of cell viability” value in data set [7] is −56.2%.

On to `CNC(=O)Nc1cc(Oc2ccc(NC(=O)Nc3cc(C(C)(C)C)nn3-c3ccc(OC)cc3)c3cccnc23)ccn1` [Example 58, 1-(3-tert-butyl-1-(4-methoxyphenyl)-1H-pyrazol-5-yl)-3-(8-(2-(3-methylureido)pyridin-4-yloxy)quinolin-5-yl)urea], for which the pIC50 in data set [1] was 8.48; in data set [2], 7.47; in data set [3], 8.66; in data set [4], 6.76; in data set [5], 7.88. In addition, in data set [6], the pEC50 is 8.68. Moreover, the “MTT Assay (Viability) 4 h d-U937, percentage loss of cell viability” value in data set [7] is −12.4%. For the same compound, in data set [7], the “MTT Assay (Viability) 24 h d-U937, percentage loss of cell viability” value is −29.0%.
